Results published in patent US9873702B2, “Heterocyclic compounds as biogenic amine transport modulators” (Southern Research Institute, priority 2014, dated 2018).
Where two headings read alike, the source gives them in different places.

Key:
[1] = target: T1, DAT (Rattus norvegicus, UniProt P23977); assay: Dopamine transporter binding, inhibition of [^3H]WIN35428 binding in rat caudate membranes; conditions: for Emax: 2 h, read-out: DAT Binding εmax
T1 construct: from tissue; host or cells: rat caudate membranes
Description: The ability of test drugs to inhibit [^3H]WIN35428 binding to DAT in rat caudate membranes was assessed as follows. For each experiment, caudates from four rat brains were suspended in 15 mL ice cold assay buffer (50 mM sodium phosphate pH 7.4) and homogenized using a polytron (setting 6, 20 sec). The homogenate was centrifuged at 30,000×g for 10 minutes at 4° C. The pellet was resuspended with vigorous vortexing in 15 mL fresh ice cold assay buffer, and the centrifugation was repeated. The pellet was resuspended in 15 mL fresh ice cold assay buffer with vigorous vortexing followed by six strokes with a glass-on-glass hand-held homogenizer and was diluted to a final volume of 235 mL in ice cold assay buffer. [^3H]WIN35428 was diluted to 10 nM in assay buffer that contained 25 μg/mL chymostatin, 25 μg/mL leupeptin, 0.1 mM EDTA, and 0.1 mM EGTA. Each assay tube contained 0.75 mL membrane preparation, 0.15 mL test drug diluted in assay buffer containing 1 mg/mL bovine serum albumin, and 0.1 mL [^3H]WIN35428 preparation (final concentration of 1 nM). Assays were initiated by the addition of membranes and were terminated after 2 hours at 25° C. by rapid vacuum filtration. Retained tritium was measured as described. The data from three experiments were pooled and fit to a dose-response curve equation (using Kaleidagraph), to yield an Emax and EC50 value.

[2] = target: T2, dopamine transporter (DAT) (Rattus norvegicus, UniProt P23977); assay: Dopamine transporter-mediated [^3H]MPP^+ release, shift of D-amphetamine-induced release, rat caudate synaptosomes; type: biochemical; parameters: Freshly removed caudate was homogenized in 10% ice-cold sucrose; from tissue; host or cells: rat caudate synaptosomes; conditions: for Apparent Kc: [3H]MPP+ release, Apparent Kc = [Blocker]/((EC50-2/EC50-1) − 1), negative when shifted EC50 is less than control
[3] = target: norepinephrine transporter (NET) (Rattus norvegicus, UniProt Q9WTR4); assay: Norepinephrine reuptake ([^3H]norepinephrine uptake) inhibition in rat brain synaptosomes; conditions: for NE Uptake Emax (% I ± SD): maximal inhibition from dose-response fit
Description: Freshly removed whole brain minus cerebellum and caudate was homogenized in 10% ice-cold sucrose with 12 strokes of a hand-held Potter-Elvehjem homogenizer followed by centrifugation at 1000×g for 10 minutes. The supernatants were saved on ice and used immediately. Transporter activity at NET was assessed using 10 nM [^3H]norepinephrine. […] Uptake inhibition assays were conducted at 37° C. and were initiated by adding 100 μL of tissue to 900 μL assay buffer containing test drug and [^3H]norepinephrine. Test drugs were diluted in assay buffer containing 1 mg/mL bovine serum albumin. Nonspecific uptake was measured by incubating in the presence of 10 μM indatraline. The reactions were stopped after 10 minutes by rapid vacuum filtration with a cell harvester (BRANDEL) over GF/B filters (Whatman) presoaked in wash buffer maintained at 25° C. (10 mM Tris-HCl, pH 7.4/150 mM NaCl). Filters were rinsed with 6 mL wash buffer and retained tritium was quantified by a MicroBeta liquid scintillation counter (PerkinElmer) after overnight extraction in 0.6 mL of liquid scintillation cocktail (Cytoscint, ICN). The data from three experiments were pooled and fit to a dose-response curve equation (using Kaleidagraph), to yield an Emax and EC50 value.
(§1) The data from three experiments were pooled and fit to a dose-response curve equation (using KaleidaGraph; Synergy Software, Reading, Pa.) to yield an Emax and IC50 value.

[4] = target: T2, dopamine transporter (DAT); assay: Dopamine reuptake ([^3H]dopamine uptake) inhibition in rat brain synaptosomes
Description: Freshly removed caudate was homogenized in 10% ice-cold sucrose with 12 strokes of a hand-held Potter-Elvehj em homogenizer followed by centrifugation at 1000×g for 10 min. The supernatants were saved on ice and used immediately. Transporter activity was assessed using 5 nM [^3H]dopamine. […] The selectivity of the uptake assay for dopamine active transporter (DAT) was optimized by including 100 nM citalopram and 100 nM desipramine as blockers of serotonin transporter (SERT) and norepinephrine transporter (NET) in the sucrose solution and assay buffer. Uptake inhibition assays were conducted at 25° C. and were initiated by adding 100 μl of tissue to 900 μL assay buffer containing test drug and [^3H]dopamine. Test drugs were diluted in assay buffer containing 1 mg/mL bovine serum albumin. Nonspecific uptake was measured by incubating in the presence of 10 μM indatraline. The reactions were stopped after 15 minutes by rapid vacuum filtration with a cell harvester (BRANDEL) over GF/B filters (Whatman) presoaked in wash buffer maintained at 25° C. (10 mM Tris-HCl, pH 7.4/150 mM NaCl). Filters were rinsed with 6 mL wash buffer and retained tritium was quantified by a MicroBeta liquid scintillation counter (PerkinElmer) after overnight extraction in 0.6 mL of liquid scintillation cocktail (Cytoscint, ICN). The data from three experiments were pooled and fit to a dose-response curve equation (using Kaleidagraph), to yield an Emax and EC50 value.
as §1

[5] = target: T3, serotonin transporter (SERT) (Rattus norvegicus, UniProt P31652); assay: Serotonin reuptake ([^3H]serotonin uptake) inhibition in rat brain synaptosomes; type: biochemical; conditions: for Emax / IC50: mean ± S.D., n = 3; for Emax: read-out: SERT Uptake Emax; for IC50: read-out: SERT Uptake IC50
T3 construct: Freshly removed whole brain minus cerebellum and caudate was homogenized; from tissue; host or cells: rat whole brain minus cerebellum and caudate, synaptosomes

[6] = target: T2, dopamine transporter (DAT); assay: Time course of [^3H]DA uptake/accumulation; type: biochemical; parameters: Freshly removed caudate was homogenized in 10% ice-cold sucrose; from tissue; host or cells: rat caudate synaptosomes
[7] = target: T2, dopamine transporter (DAT); assay: d-Amphetamine-induced DAT-mediated [^3H]DA release; type: biochemical; parameters: Freshly removed caudate was homogenized in 10% ice-cold sucrose; from tissue; host or cells: rat caudate synaptosomes; conditions: Apparent Kc = [Blocker]/((EC50-2/EC50-1) − 1), negative when shifted EC50 is less than control
[8] = rat brain synaptosomes, 10 nM [^3H]norepinephrine
[9] = read-out: NE Uptake EC50 (nM ± SD), rat brain synaptosomes, 10 nM [^3H]norepinephrine, 10 min, 37° C.
[10] = read-out: NET Uptake IC50, mean ± S.D., n = 3
[11] = DAT Uptake IC50, [3H]DA uptake inhibition, mean ± S.D., n = 3
[12] = IC50 for DAT Uptake Inhibition, rounded value as listed in Table 10
[13] = read-out: Emax for DAT Uptake Inhibition

T2 sequence (P23977 whole entry): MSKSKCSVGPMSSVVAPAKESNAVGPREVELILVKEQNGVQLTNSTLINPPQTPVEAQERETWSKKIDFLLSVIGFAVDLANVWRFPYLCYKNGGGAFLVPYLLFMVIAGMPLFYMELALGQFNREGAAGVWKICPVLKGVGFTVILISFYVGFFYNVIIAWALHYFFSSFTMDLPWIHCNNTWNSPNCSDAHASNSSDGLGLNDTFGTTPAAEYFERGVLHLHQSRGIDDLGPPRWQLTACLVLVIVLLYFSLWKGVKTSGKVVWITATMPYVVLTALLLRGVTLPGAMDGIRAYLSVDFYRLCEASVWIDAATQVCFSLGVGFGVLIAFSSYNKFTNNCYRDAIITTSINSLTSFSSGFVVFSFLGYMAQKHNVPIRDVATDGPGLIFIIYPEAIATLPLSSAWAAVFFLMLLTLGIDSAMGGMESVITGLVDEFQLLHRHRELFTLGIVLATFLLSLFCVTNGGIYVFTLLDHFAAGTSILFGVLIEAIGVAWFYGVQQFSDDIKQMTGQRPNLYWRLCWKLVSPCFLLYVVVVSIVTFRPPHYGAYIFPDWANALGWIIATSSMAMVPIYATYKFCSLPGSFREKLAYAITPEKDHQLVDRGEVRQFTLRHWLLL
T1 sequence (P23977 whole entry): as above
T3 sequence (P31652 whole entry): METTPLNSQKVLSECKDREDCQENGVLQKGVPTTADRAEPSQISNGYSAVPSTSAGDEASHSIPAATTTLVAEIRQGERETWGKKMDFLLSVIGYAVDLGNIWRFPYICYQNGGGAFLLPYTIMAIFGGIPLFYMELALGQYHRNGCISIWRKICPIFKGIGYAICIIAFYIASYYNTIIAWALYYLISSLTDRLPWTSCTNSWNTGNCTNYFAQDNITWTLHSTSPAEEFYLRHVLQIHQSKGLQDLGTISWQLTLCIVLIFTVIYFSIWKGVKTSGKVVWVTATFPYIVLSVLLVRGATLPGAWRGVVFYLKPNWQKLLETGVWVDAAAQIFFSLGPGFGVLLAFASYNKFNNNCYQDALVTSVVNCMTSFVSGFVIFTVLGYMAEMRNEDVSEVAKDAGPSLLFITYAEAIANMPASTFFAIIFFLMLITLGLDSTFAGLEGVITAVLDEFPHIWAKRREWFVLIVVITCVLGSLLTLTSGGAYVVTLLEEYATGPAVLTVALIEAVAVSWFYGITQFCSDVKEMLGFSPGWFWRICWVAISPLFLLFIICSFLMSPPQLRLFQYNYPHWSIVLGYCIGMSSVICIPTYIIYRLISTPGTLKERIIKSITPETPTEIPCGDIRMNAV

Row | Emax [1] [%] | Apparent Kc [2] [nM] | NET Uptake Emax ([3]; mean ± S.D., n = 3) [%] | NE Uptake Emax (% I ± SD) [3, 8] [% I] | IC50 [3, 9] [nM] | IC50 [3, 10] [nM] | IC50 [4, 11] [nM] | IC50 [4, 12] [nM] | Emax ([4]; read-out: DAT Uptake Emax) [%] | Emax [4, 13] [%] | Emax [5] [%] | IC50 [5] [nM] | SMILES | further results
1 | 83 ± 3 | 912 | 71 ± 6 | 71 ± 6 | 147 ± 63 | 147 ± 63 | 7.3 ± 2.2 | 7 | 63 ± 3 | 63 | 51 ± 2 | 42 ± 12 | CN(C)c1ccc(-c2nc(NCC(c3ccccc3)c3ccccc3)c3ccccc3n2)cn1 [compound 69, 2-(6-(Dimethylamino)Pyridin-3-yl)-N-(2,2-Diphenylethyl)Quinazolin-4-Amine] | EC50 ([1]; read-out: WIN Binding EC50 (μM ± SD)): 1.2 ± 0.2 µM; D-Amphetamine Emax (% ± SD) ([2]; Emax of D-amphetamine for [^3H]MPP^+ release in presence of 250 nM test compound): 99 ± 2%; Kb ([2]; apparent Ke from shift of D-amphetamine-induced [^3H]MPP^+ release, compound at the concentration of column 1, read-out: Ke App): 912 nM
2 | 65 ± 6 | -553 | 71 ± 2 | – | – | 90 ± 15 | 4.4 ± 0.8 | 4 | – | 70 | – | 20 ± 5 | CS(=O)(=O)Nc1ccc(-c2nc(NCC(c3ccccc3)c3ccccc3)c3ccccc3n2)cc1 [SRI-29577] | –
3 | 91 ± 7 | 55 | 70 ± 4 | 70 ± 4 | 11 ± 4 | 11 ± 4 | 1.2 ± 0.1 | 1 | 69 ± 1 | 69 | 54 ± 2 | 3.1 ± 0.7 | Cc1cc2nccn2cc1-c1nc(NCC(c2ccccc2)c2ccc[nH]2)c2ccccc2n1 (centres unmarked) [compound 140, 2-(7-Methylimidazo[1,2-A]Pyridin-6-yl)-N-(2-Phenyl-2-(1H-Pyrrol-2-yl)Ethyl)Quinazolin-4-Amine] | D-Amphetamine Emax (% ± SD) ([2]; Emax of D-amphetamine for [^3H]MPP^+ release in presence of 25 nM test compound): 105 ± 3%
4 | – | -368 | 72 ± 4 | 72 ± 4 | 52 ± 15 | 52 ± 15 | – | 2 | 68 ± 2 | 68 | 52 ± 2 | 23 ± 5 | c1ccc(C(CNc2nc(-c3ccc4nccn4c3)nc3ccccc23)c2ccccc2)cc1 [compound 55, N-(2,2-Diphenylethyl)-2-(Imidazo[1,2-a]Pyridin-6-yl)Quinazolin-4-Amine] | DAT Binding εmax ([1]; inhibition of [3H]WIN35428 binding, mean ± S.D., n = 3): Inactive; D-Amphetamine Emax (% ± SD) ([2]; Emax of D-amphetamine for [^3H]MPP^+ release in presence of 50 nM test compound): 103 ± 3%; effect on the d-amphetamine Emax value, in words ([2]; d-amphetamine-induced DAT-mediated [^3H]MPP^+ release, blocking concentration ˜25 times IC50 for DAT uptake inhibition): decreased; Emax at 0.001 µM ([6]; [^3H]DA accumulation, 1 nM compound 55, read-out: Inhibition of the Emax value (%)): 11%; Emax at 0.004 µM ([6]; [^3H]DA accumulation, 4 nM compound 55, read-out: Inhibition of the Emax value (%)): 29%; Emax at 0.008 µM ([6]; [^3H]DA accumulation, 8 nM compound 55, read-out: Inhibition of the Emax value (%)): 42%; Emax at 0.025 µM ([6]; [^3H]DA accumulation, 25 nM compound 55, read-out: Inhibition of the Emax value (%)): 57%; Emax ([6]; dose-dependent decrease of maximum [^3H]DA accumulation, read-out: Emax of decrease of the Emax of [^3H]DA accumulation): 69 ± 1%; Emax ([6]; maximum level of [^3H]DA accumulation, 1 nM compound 55): 89 ± 4; Emax ([6]; maximum level of [^3H]DA accumulation, 4 nM compound 55): 71 ± 2; Emax ([6]; maximum level of [^3H]DA accumulation, 8 nM compound 55): 58 ± 2; Emax ([6]; maximum level of [^3H]DA accumulation, 25 nM compound 55): 43 ± 3; effect on the Emax of [^3H]DA accumulation, in words ([6]; time course of [^3H]DA uptake): decreased the Emax in a dose-dependent manner; efficacy of NET uptake inhibition, in words ([3]; partial versus full inhibition): partial inhibitor; IC50 ([4]; IC50 for inhibition of DAT uptake, [^3H]DA uptake, text of b784): 2.3 ± 0.4 nM; efficacy of [^3H]DA (DAT) uptake inhibition, in words ([4]; partial versus full inhibition): partial inhibitor; Emax for DAT Uptake Inhibition ([4]; value as listed in Table 10): 68%; Apparent Kc [7]: -239 nM; efficacy of SERT uptake inhibition, in words ([5]; partial versus full inhibition): partial inhibitor
